Assay results published in PubChem BioAssay AID1259407 (Chemical Carcinogenesis Research Information System (CCRIS), 2018).
Calls of active or inactive are those of the source. The rule behind the calls is not given here.

Test system: CCRIS mutagenicity, Ames/micronucleus/aberration tests
Assay: CCRIS mutagenicity studies
[1] = Test System: AMES SALMONELLA TYPHIMURIUM, Strain/Indicator: TA98, Metabolic Activation: NONE, Method: STANDARD PLATE
[2] = Test System: AMES SALMONELLA TYPHIMURIUM, Strain/Indicator: TA98, Metabolic Activation: RAT, LIVER, S-9, AROCLOR 1254, Method: STANDARD PLATE
[3] = Test System: AMES SALMONELLA TYPHIMURIUM, Strain/Indicator: TA100, Metabolic Activation: NONE, Method: STANDARD PLATE
[4] = Test System: AMES SALMONELLA TYPHIMURIUM, Strain/Indicator: TA100, Metabolic Activation: RAT, LIVER, S-9, AROCLOR 1254, Method: STANDARD PLATE
[5] = Test System: Mouse lymphoma, Strain/Indicator: L5178Y (tk+/tk-), Metabolic Activation: None, Method: Suspension/plate
[6] = Test System: Mouse lymphoma, Strain/Indicator: L5178Y (tk+/tk-), Metabolic Activation: Rat, Liver, S-9, Aroclor 1254, Method: Suspension/plate
[7] = Test System: AMES SALMONELLA TYPHIMURIUM, Strain/Indicator: TA98, Metabolic Activation: NONE, Method: PREINCUBATION
[8] = Test System: AMES SALMONELLA TYPHIMURIUM, Strain/Indicator: TA100, Metabolic Activation: NONE, Method: PREINCUBATION
[9] = Test System: AMES SALMONELLA TYPHIMURIUM, Strain/Indicator: TA1535, Metabolic Activation: NONE, Method: PREINCUBATION
[10] = Test System: AMES SALMONELLA TYPHIMURIUM, Strain/Indicator: TA1537, Metabolic Activation: NONE, Method: PREINCUBATION

O=CC(O)C(O)C(O)C(O)COC1OC(COC2OC(CO)C(O)C(O)C2O)C(O)C(O)C1O (centres undefined)
mutagenic call (Test System: AMES SALMONELLA TYPHIMURIUM, Strain/Indicator: TA98, Metabolic Activation: HAMSTER, LIVER, S-9, AROCLOR 1254, Method: STANDARD PLATE): inactive; negative | mutagenic call [1]: inactive; negative | mutagenic call [2]: inactive; negative | mutagenic call (Test System: AMES SALMONELLA TYPHIMURIUM, Strain/Indicator: TA100, Metabolic Activation: HAMSTER, LIVER, S-9, AROCLOR 1254, Method: STANDARD PLATE): inactive; negative | mutagenic call [3]: inactive; negative | mutagenic call [4]: inactive; negative | mutagenic call (Test System: AMES SALMONELLA TYPHIMURIUM, Strain/Indicator: TA1535, Metabolic Activation: HAMSTER, LIVER, S-9, AROCLOR 1254, Method: STANDARD PLATE): inactive; negative | mutagenic call (Test System: AMES SALMONELLA TYPHIMURIUM, Strain/Indicator: TA1535, Metabolic Activation: NONE, Method: STANDARD PLATE): inactive; negative | mutagenic call (Test System: AMES SALMONELLA TYPHIMURIUM, Strain/Indicator: TA1535, Metabolic Activation: RAT, LIVER, S-9, AROCLOR 1254, Method: STANDARD PLATE): inactive; negative | mutagenic call (Test System: AMES SALMONELLA TYPHIMURIUM, Strain/Indicator: TA1537, Metabolic Activation: HAMSTER, LIVER, S-9, AROCLOR 1254, Method: STANDARD PLATE): inactive; negative | mutagenic call (Test System: AMES SALMONELLA TYPHIMURIUM, Strain/Indicator: TA1537, Metabolic Activation: NONE, Method: STANDARD PLATE): inactive; negative | mutagenic call (Test System: AMES SALMONELLA TYPHIMURIUM, Strain/Indicator: TA1537, Metabolic Activation: RAT, LIVER, S-9, AROCLOR 1254, Method: STANDARD PLATE): inactive; negative | mutagenic call (Test System: AMES SALMONELLA TYPHIMURIUM, Strain/Indicator: TA1538, Metabolic Activation: HAMSTER, LIVER, S-9, AROCLOR 1254, Method: STANDARD PLATE): inactive; negative | mutagenic call (Test System: AMES SALMONELLA TYPHIMURIUM, Strain/Indicator: TA1538, Metabolic Activation: NONE, Method: STANDARD PLATE): inactive; negative | mutagenic call (Test System: AMES SALMONELLA TYPHIMURIUM, Strain/Indicator: TA1538, Metabolic Activation: RAT, LIVER, S-9, AROCLOR 1254, Method: STANDARD PLATE): inactive; negative | mutagenic call [5]: inactive; negative | mutagenic call [6]: inactive; negative

CCCCC(CC)COC(=O)CCCCC(=O)O (centres undefined)
mutagenic call (Test System: AMES SALMONELLA TYPHIMURIUM, Strain/Indicator: TA97, Metabolic Activation: NONE, Method: STANDARD PLATE): inactive; negative | mutagenic call (Test System: AMES SALMONELLA TYPHIMURIUM, Strain/Indicator: TA97, Metabolic Activation: RAT, LIVER, S-9, AROCLOR 1254, Method: STANDARD PLATE): inactive; negative | mutagenic call (Test System: AMES SALMONELLA TYPHIMURIUM, Strain/Indicator: TA97, Metabolic Activation: RAT, LIVER, S-9, DI(2-ETHYLHEXYL)PHTHALATE, Method: STANDARD PLATE): inactive; negative | mutagenic call (Test System: AMES SALMONELLA TYPHIMURIUM, Strain/Indicator: TA98, Metabolic Activation: HAMSTER, LIVER, S-9, AROCLOR 1254 (10%), Method: PREINCUBATION): inactive; negative | mutagenic call [7]: inactive; negative | mutagenic call [1]: inactive; negative | mutagenic call (Test System: AMES SALMONELLA TYPHIMURIUM, Strain/Indicator: TA98, Metabolic Activation: RAT, LIVER, S-9, AROCLOR 1254 (10%), Method: PREINCUBATION): inactive; negative | mutagenic call [2]: inactive; negative | mutagenic call (Test System: AMES SALMONELLA TYPHIMURIUM, Strain/Indicator: TA98, Metabolic Activation: RAT, LIVER, S-9, DI(2-ETHYLHEXYL)PHTHALATE, Method: STANDARD PLATE): inactive; negative | mutagenic call (Test System: AMES SALMONELLA TYPHIMURIUM, Strain/Indicator: TA100, Metabolic Activation: HAMSTER, LIVER, S-9, AROCLOR 1254 (10%), Method: PREINCUBATION): inactive; negative | mutagenic call [8]: inactive; negative | mutagenic call [3]: inactive; negative | mutagenic call (Test System: AMES SALMONELLA TYPHIMURIUM, Strain/Indicator: TA100, Metabolic Activation: RAT, LIVER, S-9, AROCLOR 1254 (10%), Method: PREINCUBATION): inactive; negative | mutagenic call [4]: inactive; negative | mutagenic call (Test System: AMES SALMONELLA TYPHIMURIUM, Strain/Indicator: TA100, Metabolic Activation: RAT, LIVER, S-9, DI(2-ETHYLHEXYL)PHTHALATE, Method: STANDARD PLATE): inactive; negative | mutagenic call (Test System: AMES SALMONELLA TYPHIMURIUM, Strain/Indicator: TA102, Metabolic Activation: NONE, Method: STANDARD PLATE): inactive; negative | mutagenic call (Test System: AMES SALMONELLA TYPHIMURIUM, Strain/Indicator: TA102, Metabolic Activation: RAT, LIVER, S-9, AROCLOR 1254, Method: STANDARD PLATE): inactive; negative | mutagenic call (Test System: AMES SALMONELLA TYPHIMURIUM, Strain/Indicator: TA102, Metabolic Activation: RAT, LIVER, S-9, DI(2-ETHYLHEXYL)PHTHALATE, Method: STANDARD PLATE): inactive; negative | mutagenic call (Test System: AMES SALMONELLA TYPHIMURIUM, Strain/Indicator: TA1535, Metabolic Activation: HAMSTER, LIVER, S-9, AROCLOR 1254 (10%), Method: PREINCUBATION): inactive; negative | mutagenic call [9]: inactive; negative | mutagenic call (Test System: AMES SALMONELLA TYPHIMURIUM, Strain/Indicator: TA1535, Metabolic Activation: RAT, LIVER, S-9, AROCLOR 1254 (10%), Method: PREINCUBATION): inactive; negative | mutagenic call (Test System: AMES SALMONELLA TYPHIMURIUM, Strain/Indicator: TA1537, Metabolic Activation: HAMSTER, LIVER, S-9, AROCLOR 1254 (10%), Method: PREINCUBATION): inactive; negative | mutagenic call [10]: inactive; negative | mutagenic call (Test System: AMES SALMONELLA TYPHIMURIUM, Strain/Indicator: TA1537, Metabolic Activation: RAT, LIVER, S-9, AROCLOR 1254 (10%), Method: PREINCUBATION): inactive; negative

CCCCCCCCCCCCCO
mutagenic call [7]: inactive; negative | mutagenic call (Test System: AMES SALMONELLA TYPHIMURIUM, Strain/Indicator: TA98, Metabolic Activation: RAT LIVER S-9, PHENOBARBITAL AND BETA-NAPHTHOFLAVONE, Method: PREINCUBATION): inactive; negative | mutagenic call [8]: inactive; negative | mutagenic call (Test System: AMES SALMONELLA TYPHIMURIUM, Strain/Indicator: TA100, Metabolic Activation: RAT LIVER S-9, PHENOBARBITAL AND BETA-NAPHTHOFLAVONE, Method: PREINCUBATION): inactive; negative | mutagenic call [9]: inactive; negative | mutagenic call (Test System: AMES SALMONELLA TYPHIMURIUM, Strain/Indicator: TA1535, Metabolic Activation: RAT LIVER S-9, PHENOBARBITAL AND BETA-NAPHTHOFLAVONE, Method: PREINCUBATION): inactive; negative | mutagenic call [10]: inactive; negative | mutagenic call (Test System: AMES SALMONELLA TYPHIMURIUM, Strain/Indicator: TA1537, Metabolic Activation: RAT LIVER S-9, PHENOBARBITAL AND BETA-NAPHTHOFLAVONE, Method: PREINCUBATION): inactive; negative | mutagenic call (Test System: E.COLI, Strain/Indicator: WP2UVRA/PKM101, Metabolic Activation: NONE, Method: PREINCUBATION): inactive; negative | mutagenic call (Test System: E.COLI, Strain/Indicator: WP2UVRA/PKM101, Metabolic Activation: RAT LIVER S-9, PHENOBARBITAL AND BETA-NAPHTHOFLAVONE, Method: PREINCUBATION): inactive; negative

C[C@H]1CCC/C=C/[C@@H]2C[C@H](O)C[C@H]2[C@H](O)/C=C/C(=O)O1
mutagenic call [5]: inactive; negative | mutagenic call [6]: equivocal

[Cl-].[Cl-].[Cl-].[Cr+3].c1cnc2c(c1)ccc1cccnc12.c1cnc2c(c1)ccc1cccnc12
mutagenic call [3]: active; positive
